Experimental data: publication PMC10819888, “Benzimidazole-Based Derivatives as Apoptotic Antiproliferative Agents: Design, Synthesis, Docking, and Mechanistic Studies” (Molecules, 2024)
Where two headings read alike, the source gives them in different places. Values belong to the molecule of their own block, whether it stands above or below them.

Tests used:
[1] = system: CCRF-CEM; test: NCI-60 five-dose assay; format: cell-based, human; conditions: CCRF-CEM (Leukemia), 48 h; for GI50 / CC50: Homo sapiens; for GI50: read-out: GI50 Conc. per Cell Line; for CC50: read-out: LC50 (the source's name)
[2] = system: RPMI-8226; test: NCI-60 five-dose assay; format: cell-based, human; conditions: RPMI-8226 (Leukemia), 48 h; for GI50 / CC50: Homo sapiens; for GI50: read-out: GI50 Conc. per Cell Line; for CC50: read-out: LC50 (the source's name)
[3] = system: A549/ATCC; test: NCI-60 five-dose assay; format: cell-based, human; conditions: A549/ATCC (Non-Small Cell Lung Cancer), 48 h; for GI50 / CC50: Homo sapiens; for GI50: read-out: GI50 Conc. per Cell Line; for CC50: read-out: LC50 (the source's name)
[4] = system: EKVX; test: NCI-60 five-dose assay; format: cell-based, human; conditions: EKVX (Non-Small Cell Lung Cancer), 48 h; for GI50 / CC50: Homo sapiens; for GI50: read-out: GI50 Conc. per Cell Line; for CC50: read-out: LC50 (the source's name)
[5] = system: HOP-92; test: NCI-60 five-dose assay; format: cell-based, human; conditions: HOP-92 (Non-Small Cell Lung Cancer), 48 h; for GI50: read-out: GI50 Conc. per Cell Line
[6] = system: NCI-H23; test: NCI-60 five-dose assay; format: cell-based, human; conditions: NCI-H23 (Non-Small Cell Lung Cancer), 48 h; for GI50 / CC50: Homo sapiens; for GI50: read-out: GI50 Conc. per Cell Line; for CC50: read-out: LC50 (the source's name)
[7] = system: NCI-H522; test: NCI-60 five-dose assay; format: cell-based, human; conditions: NCI-H522 (Non-Small Cell Lung Cancer), 48 h; for GI50 / CC50: Homo sapiens; for GI50: read-out: GI50 Conc. per Cell Line; for CC50: read-out: LC50 (the source's name)
[8] = system: HCT-15; test: NCI-60 five-dose assay; format: cell-based, human; conditions: HCT-15 (Colon Cancer), 48 h; for GI50 / CC50: Homo sapiens; for GI50: read-out: GI50 Conc. per Cell Line; for CC50: read-out: LC50 (the source's name)
[9] = system: HT29; test: NCI-60 five-dose assay; format: cell-based, human; conditions: HT29 (Colon Cancer), 48 h; for GI50 / CC50: Homo sapiens, HT-29; for GI50: read-out: GI50 Conc. per Cell Line; for CC50: read-out: LC50 (the source's name)
[10] = system: SW-620; test: NCI-60 five-dose assay; format: cell-based, human; conditions: SW-620 (Colon Cancer), 48 h; for GI50: read-out: GI50 Conc. per Cell Line
[11] = system: SF-268; test: NCI-60 five-dose assay; format: cell-based, human; conditions: SF-268 (CNS Cancer), 48 h; for GI50 / CC50: Homo sapiens; for GI50: read-out: GI50 Conc. per Cell Line; for CC50: read-out: LC50 (the source's name)
[12] = system: SF-295; test: NCI-60 five-dose assay; format: cell-based, human; conditions: SF-295 (CNS Cancer), 48 h; for GI50 / CC50: Homo sapiens; for GI50: read-out: GI50 Conc. per Cell Line; for CC50: read-out: LC50 (the source's name)
[13] = system: SNB-75; test: NCI-60 five-dose assay; format: cell-based, human; conditions: SNB-75 (CNS Cancer), 48 h; for GI50 / CC50: Homo sapiens; for GI50: read-out: GI50 Conc. per Cell Line; for CC50: read-out: LC50 (the source's name)
[14] = system: MALME-3M; test: NCI-60 five-dose assay; format: cell-based, human; conditions: MALME-3M (Melanoma), 48 h; for GI50: read-out: GI50 Conc. per Cell Line
[15] = system: OVCAR-4; test: NCI-60 five-dose assay; format: cell-based, human; conditions: OVCAR-4 (Ovarian Cancer), 48 h; for GI50 / CC50: Homo sapiens; for GI50: read-out: GI50 Conc. per Cell Line; for CC50: read-out: LC50 (the source's name)
[16] = system: OVCAR-5; test: NCI-60 five-dose assay; format: cell-based, human; conditions: OVCAR-5 (Ovarian Cancer), 48 h; for GI50 / CC50: Homo sapiens; for GI50: read-out: GI50 Conc. per Cell Line; for CC50: read-out: LC50 (the source's name)
[17] = system: OVCAR-8; test: NCI-60 five-dose assay; format: cell-based, human; conditions: OVCAR-8 (Ovarian Cancer), 48 h; for GI50 / CC50: Homo sapiens; for GI50: read-out: GI50 Conc. per Cell Line; for CC50: read-out: LC50 (the source's name)
[18] = system: CAKI-1; test: NCI-60 five-dose assay; format: cell-based, human; conditions: CAKI-1 (Renal Cancer), 48 h; for GI50 / CC50: Homo sapiens; for GI50: read-out: GI50 Conc. per Cell Line; for CC50: read-out: LC50 (the source's name)
[19] = system: TK-10; test: NCI-60 five-dose assay; format: cell-based, human; conditions: TK-10 (Renal Cancer), 48 h; for GI50 / CC50: Homo sapiens; for GI50: read-out: GI50 Conc. per Cell Line; for CC50: read-out: LC50 (the source's name)
[20] = system: DU-145; test: NCI-60 five-dose assay; format: cell-based, human; conditions: DU-145 (Prostate Cancer), 48 h; for GI50 / CC50: Homo sapiens; for GI50: read-out: GI50 Conc. per Cell Line; for CC50: read-out: LC50 (the source's name)
[21] = system: MDA-MB-231; test: NCI-60 five-dose assay; format: cell-based, human; conditions: MDA-MB-231 (Breast Cancer), 48 h; for GI50 / CC50: Homo sapiens; for GI50: read-out: GI50 Conc. per Cell Line; for CC50: read-out: LC50 (the source's name)
[22] = system: T-47D; test: NCI-60 five-dose assay; format: cell-based, human; conditions: T-47D (Breast Cancer), 48 h; for GI50 / CC50: Homo sapiens, T47D; for GI50: read-out: GI50 Conc. per Cell Line; for CC50: read-out: LC50 (the source's name)
[23] = system: CNS Cancer subpanel; test: NCI-60 five-dose assay, subpanel; format: cell-based, human; conditions: for GI50 Selectivity Ratio (MID a/MID b): CNS Cancer subpanel; for GI50: Homo sapiens, CNS Cancer, average sensitivity of all subpanel cell lines, read-out: GI50 Subpanel MID b
[24] = system: Renal Cancer subpanel; test: NCI-60 five-dose assay, subpanel; format: cell-based, human; conditions: for GI50: Homo sapiens, Renal Cancer, average sensitivity of all subpanel cell lines, read-out: GI50 Subpanel MID b; for GI50 Selectivity Ratio (MID a/MID b): Renal Cancer subpanel
[25] = system: full panel of 60 human tumor cell lines; test: NCI-60 five-dose assay, full panel; format: cell-based
[26] = molecular target: BRAF^V600E; test: biochemical
BRAF^V600E, sequence (P28028 whole entry V585E): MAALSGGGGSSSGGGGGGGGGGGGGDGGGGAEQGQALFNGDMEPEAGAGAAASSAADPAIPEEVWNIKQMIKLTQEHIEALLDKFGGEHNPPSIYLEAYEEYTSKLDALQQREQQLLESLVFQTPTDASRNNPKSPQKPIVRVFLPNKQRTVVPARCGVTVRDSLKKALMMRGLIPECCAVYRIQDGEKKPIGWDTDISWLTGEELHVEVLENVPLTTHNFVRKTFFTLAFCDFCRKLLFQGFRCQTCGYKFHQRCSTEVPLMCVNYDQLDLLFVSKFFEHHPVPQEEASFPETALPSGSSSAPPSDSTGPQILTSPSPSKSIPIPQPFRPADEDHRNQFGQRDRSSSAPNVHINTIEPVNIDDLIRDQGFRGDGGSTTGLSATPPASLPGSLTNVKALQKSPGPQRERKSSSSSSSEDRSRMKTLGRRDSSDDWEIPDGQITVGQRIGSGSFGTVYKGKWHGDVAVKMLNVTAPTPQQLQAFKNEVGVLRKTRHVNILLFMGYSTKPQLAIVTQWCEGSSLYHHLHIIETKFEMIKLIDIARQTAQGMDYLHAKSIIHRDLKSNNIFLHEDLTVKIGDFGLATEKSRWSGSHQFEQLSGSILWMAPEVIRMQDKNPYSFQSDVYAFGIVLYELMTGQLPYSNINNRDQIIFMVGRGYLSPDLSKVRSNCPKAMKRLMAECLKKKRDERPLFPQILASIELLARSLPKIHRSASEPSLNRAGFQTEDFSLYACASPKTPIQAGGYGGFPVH

[27] = average sensitivity of all cell lines, read-out: MID a (GI50)
[28] = five-dose assay, range over cell lines, read-out: GI50 range over the examined cell lines

Structure (SMILES): O=C(NN=Cc1ccc([N+](=O)[O-])cc1)c1ccc2[nH]c(-c3ccc(Cl)cc3)nc2c1 [Compound 4c, N′-(4-Nitrobenzylidene)-2-(4-chlorophenyl)-1H-benzimidazole-5-carbohydrazide]
TGI [1]: 17.70 µM | GI50 [1]: 0.591 µM | CC50 [1]: > 100 µM | GI50 [2]: 0.461 µM | CC50 [2]: > 100 µM | TGI [2]: 2.41 µM | TGI [3]: 24.10 µM | GI50 [3]: 3.98 µM | CC50 [3]: > 100 µM | TGI [4]: 21.20 µM | GI50 [4]: 3.19 µM | CC50 [4]: > 100 µM | TGI [5]: 7.52 µM | GI50 ([5]; Homo sapiens): 0.985 µM | GI50 [6]: 1.85 µM | CC50 [6]: 67.6 µM | TGI [6]: 11.50 µM | GI50 [7]: 3.05 µM | CC50 [7]: > 100 µM | TGI [7]: 11.70 µM | TGI [8]: 13.30 µM | GI50 [8]: 2.6 µM | CC50 [8]: > 100 µM | TGI [9]: >100 µM | GI50 [9]: 3.02 µM | CC50 [9]: > 100 µM | GI50 ([10]; Homo sapiens): 3.44 µM | TGI [10]: 10.80 µM | GI50 [11]: 4.97 µM | CC50 [11]: > 100 µM | TGI [11]: 24.30 µM | GI50 [12]: 3.4 µM | CC50 [12]: 43.8 µM | TGI [12]: 13.10 µM | GI50 [13]: 2.78 µM | CC50 [13]: > 100 µM | TGI [13]: 18.00 µM | GI50 ([14]; Homo sapiens): 1.48 µM | TGI [14]: 5.00 µM | GI50 [15]: 2.75 µM | CC50 [15]: > 100 µM | TGI [15]: 8.64 µM | GI50 [16]: 4.43 µM | CC50 [16]: > 100 µM | TGI [16]: 37.80 µM | GI50 [17]: 2.89 µM | CC50 [17]: > 100 µM | TGI [17]: 13.70 µM | TGI [18]: 16.10 µM | GI50 [18]: 3.49 µM | CC50 [18]: 85.4 µM | GI50 [19]: 8.99 µM | CC50 [19]: > 100 µM | TGI [19]: 40.23 µM | TGI [20]: 21.40 µM | GI50 [20]: 3.99 µM | CC50 [20]: > 100 µM | GI50 [21]: 3.75 µM | CC50 [21]: 69.1 µM | TGI [21]: 13.90 µM | GI50 [22]: 2.29 µM | CC50 [22]: > 100 µM | TGI [22]: 7.21 µM | GI50 Selectivity Ratio (MID a/MID b) [23]: 0.81 | GI50 [23]: 4.05 µM | GI50 [24]: 4.3 µM | GI50 Selectivity Ratio (MID a/MID b) [24]: 0.76 | GI50 [25, 27]: 3.28 µM | GI50 [25, 28]: 0.42 to 8.99 µM | IC50 [26]: 0.31 ± 0.07 µM

Structure (SMILES): O=C(NN=Cc1ccc(Cl)cc1)c1ccc2[nH]c(-c3ccc(Cl)cc3)nc2c1 [Compound 4e, N′-(4-Chlorobenzylidene)-2-(4-chlorophenyl)-1H-benzimidazole-5-carbohydrazide]
TGI [1]: 9.03 µM | GI50 [1]: 1.43 µM | CC50 [1]: 65.8 µM | GI50 [2]: 1.16 µM | CC50 [2]: 16.5 µM | TGI [2]: 3.52 µM | TGI [3]: 4.53 µM | GI50 [3]: 2.16 µM | CC50 [3]: 9.52 µM | TGI [4]: 3.68 µM | GI50 [4]: 1.82 µM | CC50 [4]: 7.43 µM | TGI [5]: 3.53 µM | LC50 (50% lethal concentration) ([5]; Homo sapiens): 7.47 µM | GI50 ([5]; Homo sapiens): 1.67 µM | GI50 [6]: 1.93 µM | CC50 [6]: 10.8 µM | TGI [6]: 4.43 µM | GI50 [7]: 2.24 µM | CC50 [7]: 77.9 µM | TGI [7]: 5.85 µM | TGI [8]: 3.03 µM | GI50 [8]: 1.42 µM | CC50 [8]: 6.46 µM | TGI [9]: 5.47 µM | GI50 [9]: 1.97 µM | CC50 [9]: 44.1 µM | LC50 ([10]; Homo sapiens): 7.43 µM | GI50 ([10]; Homo sapiens): 1.83 µM | TGI [10]: 3.69 µM | GI50 [11]: 2.08 µM | CC50 [11]: 9.09 µM | TGI [11]: 4.35 µM | GI50 [12]: 1.86 µM | CC50 [12]: 6.56 µM | TGI [12]: 3.50 µM | GI50 [13]: 1.59 µM | CC50 [13]: 8.22 µM | TGI [13]: 3.62 µM | LC50 ([14]; Homo sapiens): 6.41 µM | GI50 ([14]; Homo sapiens): 1.55 µM | TGI [14]: 3.15 µM | GI50 [15]: 1.74 µM | CC50 [15]: 6.23 µM | TGI [15]: 3.29 µM | GI50 [16]: 1.85 µM | CC50 [16]: 8.52 µM | TGI [16]: 3.97 µM | GI50 [17]: 2.11 µM | CC50 [17]: 16.5 µM | TGI [17]: 4.74 µM | TGI [18]: 3.29 µM | GI50 [18]: 1.7 µM | CC50 [18]: 6.37 µM | GI50 [19]: 2.06 µM | CC50 [19]: 8.98 µM | TGI [19]: 4.30 µM | TGI [20]: 3.44 µM | GI50 [20]: 1.76 µM | CC50 [20]: 6.7 µM | GI50 [21]: 1.85 µM | CC50 [21]: 7.67 µM | TGI [21]: 3.77 µM | GI50 [22]: 1.79 µM | CC50 [22]: 8.21 µM | TGI [22]: 3.83 µM | GI50 Selectivity Ratio (MID a/MID b) [23]: 0.92 | GI50 [23]: 1.94 µM | GI50 [24]: 1.77 µM | GI50 Selectivity Ratio (MID a/MID b) [24]: 1.01 | GI50 [25, 27]: 1.79 µM | LC50 ([25]; five-dose assay, range over cell lines): 5.73 to 77.9 µM | GI50 [25, 28]: 0.97 to 4.93 µM | IC50 [26]: 0.2 ± 0.02 µM

IC50 [26]: 0.82 ± 0.06 µM
Structure (SMILES): COc1cc(/C=N/NC(=O)c2ccc3[nH]c(-c4ccc(Cl)cc4)nc3c2)cc(OC)c1OC [Compound 4h, N′-(3,4,5-Trimethoxybenzylidene)-2-(4-chlorophenyl)-1H-benzimidazole-5 carbohydrazide]
